{
  "source": "patent US20220354811A1",
  "about": "“METHODS AND COMPOSITIONS FOR MODULATING MACROPHAGES POLARIZATION” (INSERM (INSTITUT NATIONAL DE LA SANTÉ ET DE LA RECHERCHE …, priority 2019, published 2022)",
  "key": {"[1]": {"tested_on": "bleomycin-induced pulmonary fibrosis", "experiment": "Bleomycin-induced lung fibrosis in mice", "type": "in vivo", "conditions": "subcutaneous 18 μg/g body weight twice a day for three weeks; bleomycin-treated mice", "text": "FIG. 7. Pharmacologic and genetic inhibition of caspase-8 prevents bleomycin-induced pulmonary fibrosis. (A) Quantification of Sirius Red labeling intensity. […] Each dot or square is an individual mouse. *P<0.05 according to Mann-Whitney test. (B) Quantification of airspace number/mm2 of parenchymal tissue. Results expressed as fold change in treated compared to control mice as in B. *P<0.05 according to Mann-Whitney test. (C) Quantification of Sirius Red labeling intensity. Results expressed as fold change in treated compared to control mice, C8 KO+bleomycin compared to C8 KO as in B. *P<0.05 according to Mann-Whitney test. (D) Quantification of airspace number/mm2 of parenchymal tissue. Results are expressed as fold change in treated compared to untreated wild-type mice, as in panel E. *P<0.05 according to Mann-Whitney test. (E) Cytokines were measured in broncho-alveolar lavage fluid collected from bleomycin-treated wild-type (wt) and LysM-Cre/Caspase-8 flox/flox (C8 KO) mice treated with bleomycin. Results are expressed as fold-changes compared to untreated mice. *P<0.05, **P<0.01 according to Mann-Whitney test. […]\nProcedures were approved by our Institutional Ethical Committee (CEEA 26) and the French Ministry of Research (#9861). […] To quantify airspace number, tissue sections 4-μm stained with Sirius Red were scanned using a NanoZoomer-SQ (Hamamatsu Corporation, Japan). […]"}, "[2]": {"conditions": "several recent studies (Frenette 2019; Barreyro 2015; Baskin-Bey 2007); cited from earlier work"}, "[3]": {"tested_on": "human primary monocytes", "conditions": "literature (Jacquel et al., Blood 2009, Sci Reports 2018); cited from earlier work"}},
  "data": [
    {"molecule": "C[C@H](NC(=O)C(=O)Nc1ccccc1C(C)(C)C)C(=O)N[C@@H](CC(=O)O)C(=O)COc1c(F)c(F)cc(F)c1F", "note": "[Emricasan, (S)-3-((S)-2-(2-((2-(tert-Butyl)phenyl)amino)-2-oxoacetamido)propanamido)-4-oxo-5-(2,3,5,6-tetrafluorophenoxy)pentanoic acid]", "values": [
      {"measurement": "lung fibrosis intensity (Sirius Red staining intensity and air space)", "setting": "[1]", "result": "dramatically decreases"},
      {"measurement": "liver functions in patients suffering liver diseases", "setting": "[2]", "result": "improve liver functions"}
    ]},
    {"molecule": "CC(C)[C@H](NC(=O)c1ccc2ccccc2n1)C(=O)N[C@@H](CC(=O)O)C(=O)COc1c(F)cccc1F", "note": "[Q-VD-OPh]", "values": [
      {"measurement": "effect on CSF-1-induced monocyte differentiation", "setting": "[3]", "result": "inhibits"}
    ]}
  ]
}
